In patent US20230277669A1, “USES OF UROLITHINS” (Amazentis SA, priority 2022, published 2023):

Assays:
APTK organoids = APTK organoids incubated with UA, flow cytometry; format: cell-based, murine
Description: Oral UA confers anti-tumor effects in murine colorectal cancer in a T-cell dependent manner. (FIG. 1A) Schematic representation of AOM model and different UA containing diets. (FIG. 1B) Representative images of swiss-roll sections from AOM-induced colon tumors. Scale bars are 2 mm (upper row) and 300 µm (lower row), respectively. (FIG. 1C) Tumor incidence of AOM-induced tumors receiving different UA-containing diets; n=4/5/5. Data are mean ±SD, depicting one of two independent experiments. *p < 0.05 by two-sided t-test. (FIG. 1D) Average lesion size of AOM-induced tumors receiving different UA-containing diets; n=4/5/5. Data are mean ±SD, depicting one of two independent experiments. *p < 0.05 by two-sided t-test. (FIG. 1E) Relative number of CD45^+CD3^+ T cells in colons of AOM-treated mice at week 24 (n>7, pooled from two independent experiments). Data are mean ± SD, **p < 0.01 by two-sided t-test. (FIG. 1F) Organoid treatment scheme. APTK-organoids were incubated in the presence of UA or DMSO for the indicated time points, prior to flow cytometric analysis. (FIG. 1G) Quantification of lysosome formation as assessed by lysotracker MFI via flow cytometry after 24 h incubation at the presence of various UA concentrations (n=5/4/4). Depicts one out of two indepdent experiments. Data are mean ± SD, *p < 0.05; **p < 0.01 as established via two-sided t-test. (FIG. 1H) Mitotracker signal of APTK organoids incubated for 24 h at the presence of UA in vitro (n=4/4/4) and antigen presentation via MHC-I molecules (I) after 48 h of treatment (n=4/4/4). Results from one out of two independent experiments are shown. Data are mean ± SD, statistical analysis was performed via two-sided t-test, *p < 0.05; **p < 0.01, ****p < 0.0001. (FIG. 1I) Upregulation of MHC-I by UA. (FIG. 1J) Experimental setup of oral UA administration in mice with established APTK-s.c. tumors. […] (FIG. 1L) End point tumor weight, (FIG. 1M) CD8+ T cell infiltration in APTK-s.c. tumors assessed by flow cytometry, normalising total number of CD8^+ T cells to tumor weight (n=7 per group). […]

subcutaneous APTK tumors = assay: Oral UA in Rag1-/- mice with s.c. APTK tumors; format: in vivo; details: UA-containing vs control food; no mature T and B cells
Description: Oral UA confers anti-tumor effects in murine colorectal cancer in a T-cell dependent manner. (FIG. 1A) Schematic representation of AOM model and different UA containing diets. (FIG. 1B) Representative images of swiss-roll sections from AOM-induced colon tumors. Scale bars are 2 mm (upper row) and 300 µm (lower row), respectively. (FIG. 1C) Tumor incidence of AOM-induced tumors receiving different UA-containing diets; n=4/5/5. Data are mean ±SD, depicting one of two independent experiments. *p < 0.05 by two-sided t-test. (FIG. 1D) Average lesion size of AOM-induced tumors receiving different UA-containing diets; n=4/5/5. Data are mean ±SD, depicting one of two independent experiments. *p < 0.05 by two-sided t-test. (FIG. 1E) Relative number of CD45^+CD3^+ T cells in colons of AOM-treated mice at week 24 (n>7, pooled from two independent experiments). Data are mean ± SD, **p < 0.01 by two-sided t-test. (FIG. 1F) Organoid treatment scheme. […] (FIG. 1G) Quantification of lysosome formation as assessed by lysotracker MFI via flow cytometry after 24 h incubation at the presence of various UA concentrations (n=5/4/4). […] (FIG. 1L) End point tumor weight, (FIG. 1M) CD8+ T cell infiltration in APTK-s.c. tumors assessed by flow cytometry, normalising total number of CD8^+ T cells to tumor weight (n=7 per group). […]

T cells = assay: RNA sequencing of T cells exposed to DMSO or UA; format: cell-based; details: 48 hours
Protocol: (FIG. 5B) RNAseq expression heatmap of selected genes: Genes associated with immune checkpoints, effector molecules and genes encoding for leukocyte migration. (FIG. 5C) Expression of genes associated with T cell memory vs effector fate decisions. Data underwent z-score normalization for display (n=3 per group). […] T cells were stimulated for 48 h in vitro at the presence of the indicated treatments. Data are mean ± SD (n=4/4/3), statistical analysis was performed by two-sided t-test (p***<0.01; p****0.0001). (FIG. 5E) Quantification of TSCM formation within CD8+ cells after 48 h of in vitro stimulation under various treatment conditions, including TCF1 inhibition by ICG001 (DMSO, UA, TCF1i n=4; TCFi+UA n=3). Data are mean ± SD, statistical analysis was performed by two-sided t-test (*p < 0.05; n.s. not significant). One of two independent experiments are shown. (FIG. 5F) Western blot analysis of β-Catenin phosphorylation status in CD3+ cells stimulated via plate-bound aCD3/aCD28 antibodies for 6h. N=3 per group. (FIG. 5G) Cytosolic fractionation of CD3+ cells stimulated for six hours in the presence of Urolithin or DMSO control (c= cytosolic, m = mitochondrial fraction). Experiment was repeated twice.
(FIG. 8A) Ingenuity pathway upstream regulator analysis of UA treated T cells. Assessed from RNAseq data. Plausible upregulation is depicted by z score, significance is shown on the overlying dot spot. Genes with a log2 fold change of 1 and p<0.05 were initially considered.
To explore the downstream events linking mitophagy to TSCM formation, we performed RNA sequencing to globally assess differential gene expression in T cells exposed for 48 hours to either DMSO or UA in vitro. […] Indeed, when we applied ICG001 to pharmacologically block TCF-1, UA-induced TSCM formation in vitro was abrogated (FIGS. 5D-E).

[1] = increasing concentrations of UA, 24 h

With `O=c1oc2cc(O)ccc2c2ccc(O)cc12` [Urolithin A] the “MHC-I (antigen presentation)” value (APTK organoids; 48 h of treatment) was “marked upregulation of MHC-I”, the MitoTracker staining (APTK organoids; [1]) was “loss of MitoTracker staining” and the “formation of lysosomes (lysotracker MFI)” value (APTK organoids; [1]) was “dose-dependent formation of lysosomes”. For the same compound, the “tumor size, protective effect of UA” value (subcutaneous APTK tumors) was “abrogated the protective effect of UA”, the “effector fate associated genes Prdm1 and Id2” value (T cells) was “reduced expression” and the “expression of Cd27, Ccr7 and adhesion genes” value (T cells) was “enhancing expression”. The “expression of genes coding for immune checkpoints and effector molecules” value (T cells) was “reduced the expression” and the “genes involved in memory formation (Tcf7, Bach2, Bcl6)” value (T cells) was “special enrichment”.
